Key:
[1] = target: T1, Cytosol Progesterone Receptor of the Estrogen-primed Immature Rabbit Uterus (Oryctolagus cuniculus, UniProt P06186); test: Relative binding affinity for progesterone receptor (competition with 3H-progesterone); set-up: species or system rabbit (New Zealand White); details: for RBA: 16-18 hour incubation, progesterone = 100
T1 construct: cytosol progesterone receptor of the estrogen-primed immature rabbit uterus; tissue Dutchland Laboratories, Inc., Denver, Pa (animals); host or cells: uterus cytosol of estradiol-treated immature female New Zealand White rabbits
T1 sequence (P06186 1-930): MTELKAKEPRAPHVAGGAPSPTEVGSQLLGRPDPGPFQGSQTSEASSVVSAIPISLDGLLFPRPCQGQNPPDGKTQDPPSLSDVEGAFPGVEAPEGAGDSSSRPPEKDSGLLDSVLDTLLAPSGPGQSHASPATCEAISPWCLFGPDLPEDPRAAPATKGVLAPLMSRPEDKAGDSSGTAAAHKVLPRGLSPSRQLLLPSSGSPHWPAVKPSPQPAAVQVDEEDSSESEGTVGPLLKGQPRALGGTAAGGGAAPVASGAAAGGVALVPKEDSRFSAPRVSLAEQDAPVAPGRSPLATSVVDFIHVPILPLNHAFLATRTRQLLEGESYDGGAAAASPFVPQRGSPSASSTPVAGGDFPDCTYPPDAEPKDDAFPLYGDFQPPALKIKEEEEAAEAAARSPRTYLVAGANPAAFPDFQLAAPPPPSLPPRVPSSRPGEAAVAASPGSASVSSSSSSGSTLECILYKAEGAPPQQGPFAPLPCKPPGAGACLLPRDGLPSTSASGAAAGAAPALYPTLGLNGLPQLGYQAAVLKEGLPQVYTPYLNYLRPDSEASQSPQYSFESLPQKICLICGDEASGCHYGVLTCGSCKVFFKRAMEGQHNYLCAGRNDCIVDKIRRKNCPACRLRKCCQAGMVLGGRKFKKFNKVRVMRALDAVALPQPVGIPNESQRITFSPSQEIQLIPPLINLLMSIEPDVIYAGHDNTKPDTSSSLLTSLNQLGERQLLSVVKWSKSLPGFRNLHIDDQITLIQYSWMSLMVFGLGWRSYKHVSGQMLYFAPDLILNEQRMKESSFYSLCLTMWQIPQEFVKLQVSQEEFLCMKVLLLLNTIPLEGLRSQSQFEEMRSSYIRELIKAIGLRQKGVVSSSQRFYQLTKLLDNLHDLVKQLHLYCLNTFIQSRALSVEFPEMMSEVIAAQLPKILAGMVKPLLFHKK
Procedure: RBA values recorded at 0° C. after short incubation times (e.g., 2 hr) mainly reflect differences in the association rate constants of the competing ligands, whereas those measured after long incubation times (e.g., 16 to 24 hr) and/or higher temperatures predominantly are influenced by differences in the dissociation rate constants of the competing ligands. RBA's determined after short incubation times primarily reflect the association of the competitor compared to the natural hormone. Conversely, RBA's measured after long incubation times reflect the dissociation rate of the competitor compared to the natural hormone.
The assay components are combined, allowed to equilibrate, and unbound radioactivity removed by charcoal adsorption.
Animal species. Immature female New Zealand White rabbits weighing 0.8 to 1.0 kg (Dutchland Laboratories, Inc., Denver, Pa).
Pretreatment. Subcutaneous treatment with 15 μg 17β-estradiol/0.6 ml sesame oil each morning (0830 to 0930 hr) for three days. Animals sacrificed 24 hr after final injection.
Tissue. Uterus; each uterus weighed about 1.0 g and two or three uteri were pooled for each assay.
Buffer. (A) 0.01M TES, pH 7.4, 1 mM EDTA, 0.012M thioglycerol and 30% glycerol for cytosol preparation and ^3 H-steroid, unlabeled hormone and compound solutions. (B) 0.01M TES, pH 7.4, 1 mM EDTA and 0.012M thioglycerol for charcoal solution.
Homogenization. Five or six 5-second bursts with 30 second cooling periods between bursts using Brinkman Polytron Pt. 10 at 3.5 rheostat setting.
Temperature. 0°-4° C. for all steps.
Centrifugation. 45,000 rpm for 1 hr, 50 Ti rotor, Beckman L8-80 ultracentrifuge.
Incubation. 16-18 hr at 4°-6° C.
Concentations. 1×10^-10 M to 1×10^-5 M (7 concentrations).
Method. Charcoal adsorption method used to remove unbound radioactivity. Five-tenths ml of dextran-coated charcoal (0.5% Norit A and 0.05% dextran T-70) added to all tubes except total radioactivity tubes (0.5 ml buffer [B] added), tubes vortexed 3-5 sec, allowed to sit for 10 minutes and centrifuged 10 minutes at 2000 rpm in Beckman TJ-6 centrifuge at 0°-4° C.
Data Interpretation. […] The relative binding affinity (RBA) of each compound was calculated by using the following equation. [formula] where

[2] = system: uterine endometrium of estrone-primed immature rabbits; test: Clauberg assay (progestational activity, McPhail); assay type: in vivo, rabbit (New Zealand White); details: for progestational potency relative to subcutaneous progesterone, in words: compound given orally, progesterone sc; for McPhail Index (0-4) (X ± S.D.): 0 none, 4 maximal

SMILES	RBA ([1]; Assay 4) [%]	RBA ([1]; Assay 5) [%]	progestational potency relative to subcutaneous progesterone, in words [2]	Uterine Weight (X ± S.D.) ([2]; oral, 50 μg/rabbit daily) [g]	McPhail Index (0-4) (X ± S.D.) ([2]; oral, 50 μg/rabbit daily)	Uterine Weight (X ± S.D.) ([2]; oral, 100 μg/rabbit daily) [g]	McPhail Index (0-4) (X ± S.D.) ([2]; oral, 100 μg/rabbit daily)	Uterine Weight (X ± S.D.) ([2]; sc, 2.5 μg/rabbit daily) [g]	McPhail Index (0-4) (X ± S.D.) ([2]; sc, 2.5 μg/rabbit daily)	Uterine Weight (X ± S.D.) ([2]; sc, 5 μg/rabbit daily) [g]	McPhail Index (0-4) (X ± S.D.) ([2]; sc, 5 μg/rabbit daily)	Uterine Weight (X ± S.D.) ([2]; sc, 10 μg/rabbit daily) [g]	McPhail Index (0-4) (X ± S.D.) ([2]; sc, 10 μg/rabbit daily)	Uterine Weight (X ± S.D.) ([2]; sc, 20 μg/rabbit daily) [g]	McPhail Index (0-4) (X ± S.D.) ([2]; sc, 20 μg/rabbit daily)	further results
C#C[C@@]1(C(C)=O)CC[C@H]2[C@@H]3C[C@H](C)C4=CC(=O)CC[C@]4(C)[C@H]3CC[C@@]21C [6α-Methyl-17α-acetylpregn-4-ene-20-yn-3-one]	5	6														
C#C[C@]1(C(C)=O)CC[C@H]2[C@@H]3CCC4=CC(=O)CC[C@@H]4[C@H]3CC[C@@]21C [17α-Ethynyl-19-norprogesterone, 17α-ethynyl-19-nor-4-pregnene-3,20-dione]	100	133	roughly comparable to subcutaneously administered progesterone	1.41 ± 0.02	0.38 ± 0.27	1.72 ± 0.36	1.17 ± 1.10	2.64 ± 0.22	3.25 ± 0.41	3.55 ± 0.54	3.97 ± 0.05	4.57 ± 0.67	3.92 ± 0.12	4.94 ± 0.87	4.00 ± 0.00	progesterone receptor binding, in words ([1]; compared with progesterone): slightly greater than that of progesterone itself; progestational potency relative to progesterone (sc) ([2]; compound given sc): about 100 times; Uterine Weight (X ± S.D.) ([2]; oral, 200 μg/rabbit daily): 1.70 ± 0.33 g; McPhail Index (0-4) (X ± S.D.) ([2]; oral, 200 μg/rabbit daily): 0.83 ± 0.72; Uterine Weight (X ± S.D.) ([2]; oral, 400 μg/rabbit daily): 3.40 ± 1.14 g; McPhail Index (0-4) (X ± S.D.) ([2]; oral, 400 μg/rabbit daily): 3.75 ± 0.10
C#C[C@]1(C(C)=O)CC[C@H]2[C@@H]3C[C@H](C)C4=CC(=O)CC[C@]4(C)[C@H]3CC[C@@]21C [6α-Methyl-17α-ethynylprogesterone, 17α-Ethynyl-6α-methylprogesterone]	63	67	four times more potent than progesterone administered subcutaneously	3.21 ± 0.79	3.92 ± 0.12	3.28 ± 0.35	4.00 ± 0.00	1.31 ± 0.20	0.21 ± 0.06	1.84 ± 0.48	1.29 ± 1.40	3.68 ± 0.31	3.92 ± 0.12	3.69 ± 0.62	4.00 ± 0.00	RBA ([1]; Assay 6): 91%; potency relative to 6α-methyl-17-acetoxyprogesterone (Provera), in words ([2]; both given orally): at least as twice as potent; Uterine Weight (X ± S.D.) ([2]; oral, 10 μg/rabbit daily): 1.28 ± 0.37 g; McPhail Index (0-4) (X ± S.D.) ([2]; oral, 10 μg/rabbit daily): 0.67 ± 0.42; Uterine Weight (X ± S.D.) ([2]; oral, 25 μg/rabbit daily): 2.43 ± 0.41 g; McPhail Index (0-4) (X ± S.D.) ([2]; oral, 25 μg/rabbit daily): 2.67 ± 1.00
CC(=O)[C@H]1CC[C@H]2[C@@H]3C[C@H](C)C4=CC(=O)CC[C@]4(C)[C@H]3CC[C@]12C [6α-Methylprogesterone, reference compound]	57															
